Measurements taken from patent US12264356B2, “Method for determining sensitivity to SGLT2 inhibitor and sensitivity marker for SGLT2 inhibitor” (NIHON UNIVERSITY, priority 2019, dated 2025).

Test system: patients suffering from coronary artery disease complicated with type 2 diabetes
Assay: Administration of SGLT2 inhibitor (50 mg Ipragliflozin) for 3 months; changes in individual indicators before and after administration
Assay type: in vivo, human
Details: for 1,5-AG after administration of SGLT2 inhibitor: P <0.001
Experimental: Thirty patients suffering from coronary artery disease complicated with type 2 diabetes (28 male patients and 2 female patients; average age: 70.5±8.1 years old) who did outpatient visit and could not sufficiently control their blood glucose level only by administration with an oral hypoglycemic agent were used as subjects. Patients whose casual urinary sugar was positive before administration of the agent were excluded from the subjects. The aforementioned patients were administered with the SGLT2 inhibitor (50 mg Ipragliflozin; 30 cases) alone or in combination with other oral hypoglycemic agents for 3 months. In the additional administration groups, the antidiabetic agents used in combination with the SGLT2 inhibitor were 10 cases of sulfonylurea drugs, 19 cases of DPP-4 inhibitors, 9 cases of thiazolidine drugs, and 4 cases of metformin. The average number of the combined agents was 2.4. During the observation period, the combined antidiabetic agents were not changed.
Before administration of the SGLT2 inhibitor and 3 months after the first administration, 1,5-AG, HbA1c, casual urinary sugar (U-Sugar), LDL cholesterol (LDL-C), hematocrit (Ht), NT-proBNP, and eGFR (estimated glomerular filtration rate) were measured, and changes in individual indicators before and after the administration were examined. Moreover, regarding cases in which the 1,5-AG value before administration of the SGLT2 inhibitor was less than 13 μg/mL (19 male patient cases), changes in individual indicators before and after the administration were examined.
1,5-AG was measured by an enzymatic method (the aforementioned Lana 1,5AG Auto Liquid, manufactured by Nippon Kayaku Co., Ltd.); HbA1c was measured by an HPLC method (manufactured by Tosoh Co., Ltd.); casual urinary sugar was measured by a test paper method (manufactured by Eiken Chemical Co., Ltd.); and LDL cholesterol was measured by an enzymatic method (manufactured by SEKISUI MEDICAL CO., LTD.) and NT-pro BNP was measured by an ELC-EIA method (manufactured by Roche Diagnostics K. K.).
In Table 5 and Table 6, the results are shown with mean±SD, and for statistical analyses, a paired t-test was applied, and p<0.05 was defined to be statistically significant.

**Q.** With `OC[C@H]1O[C@@H](c2ccc(F)c(Cc3cc4ccccc4s3)c2)[C@H](O)[C@@H](O)[C@@H]1O` [Ipragliflozin] as the molecule, how does the “1,5-AG after administration of SGLT2 inhibitor” value (19 male patients with 1,5-AG less than 13 μg/mL before administration, 50 mg, 3 months, mean ± SD, before 8.6 ± 2.9) read?
**A.** 1.7 ± 0.8 µg/mL

**Q.** What about the “HbA1c after administration of SGLT2 inhibitor” value (19 male patients with 1,5-AG less than 13 μg/mL before administration, 3 months, before 7.2 ± 0.8, P = 0.13) of the same molecule?
**A.** 6.8 ± 0.6

**Q.** What about the “1,5-AG after administration of SGLT2 inhibitor” value (30 patients, 50 mg, 3 months after first administration, mean ± SD, before administration 12.8 ± 6.7) of the same molecule?
**A.** 2.5 ± 2.0

**Q.** And the “HbA1c after administration of SGLT2 inhibitor” value (30 patients, 50 mg, 3 months, mean ± SD, before 7.0 ± 0.8, P = 0.40)?
**A.** 7.2 ± 1.2
